Results taken from US6338963B1, “Use of carbon monoxide dependent guanylyl cyclase modifiers to stimulate neuritogenesis” (NeoTherapeutics, Inc., priority 1994, dated 2002).
Where a name gives a salt, the structure may show the parent alone. Marks after values point to notes of the source that are not given here.

What was measured:
[1] = test system: cultured neurons from rat cerebral cortex; assay: NMDA-induced toxicity in cultured rat cortical neurons, astrocyte conditioned medium; format: cell-based; settings: NMDA pulse 100 μM for 10 min, Trypan blue or LDH
Description: In these experiments, cultured neurons were prepared from rat cerebral cortex. In these cultures the NMDA pulse (100 μM for 10 min) provoked about 80% neuronal death (measured by Trypan blue cell staining or LDH activity). Separately, cultured astrocytes were treated for 6 hours with AIT-082. Then, the medium containing the drug was replaced with fresh medium without the drug and the astrocyte cultures were maintained in this medium for the next 24 hours. This medium represented the CM and was added to neurons soon after the toxic pulse with NMDA. The addition of CM partly counteracted the toxic effects caused by NMDA, reducing the neuronal damage by about 50%. If the medium was boiled for 20 min at 100° C. prior to addition to NMDA-damaged neurons, it completely lost the protective activity. […] To verify whether the neuroprotection caused by AIT-082 was ascribable to the production of TGFβ2 or NGF, antibodies to TGFβ2 or to NGF (100 ng/ml) were added together with CM.
Conversely, when DPCPX (100 nm) was added to astrocyte cultures together with AIT-082, the neuroprotective effect of the resulting CM deriving from the culture of the astrocytes with AIT-082 was reduced by only 20%, as compared to the neuroprotective effect of CM derived from astrocytes exposed to AIT-082 alone (assumed as equal to 100%).

[2] = test system: rat caudate nuclei; assay: GAD activity in rat caudate nuclei damaged by NMDA; format: in vivo; settings: NMDA 25-300 nmoles infused unilaterally, maximal lesion, 8 to 10 days
Description: The effect of AIT-082 on in vivo neuroprotection was also assessed by assaying for glutamic acid decarboxylase (GAD) activity.
GAD activity in rat caudate nuclei was damaged in vivo by NMDA. Increasing amounts of NMDA (25-300 nmoles) were unilaterally infused into caudate nuclei of rats. Eight to 10 days after the injections, glutarnic acid decarboxylase (GAD) activity was assayed, as an index of the loss of GABA-ergic neurons. NMDA produced a dose-dependent lesion, which at its maximal extension caused a reduction of GAD activity by 50% in comparison with that of contralateral sham-operated nuclei (control). […] The necrotic areas are in white, whereas the shadow is the surrounding edema GAD activity was evaluated by measuring the ex novo formation of [^3H]GABA from dissected striata exposed to 1 μCi of [^3H]glutamate for 1 hour at 37° C. GABA was assayed by HPLC with fluorescence detection and the [3H]label associated with GABA was measured.

[3] = test system: cultured rat hippocampal neurons; assay: NMDA-induced toxicity in cultured rat hippocampal neurons, astrocyte conditioned medium; settings: NMDA 100 μM pulse of 10 min.
Description: To determine whether or not AIT-082 afforded in vitro neuroprotection, the effect of AIT-082 on toxicity induced by N-methyl-D-aspartate (NMDA) in cultured rat hippocampal neurons was studied.
To determine whether AIT-082 protected against neuronal toxicity induced by NMDA, and whether astrocytes might be involved, cultured astrocytes were exposed to AIT-082 for 6 hr. The drug was then removed and cultures were kept in fresh medium for the following 20 hr. This conditioned medium was then added to primary cultures of rat hippocampal neurons on the seventh day in vitro, immediately after they had been exposed to a toxic pulse of NMDA.
It was next evaluated whether the addition of conditioned medium (CM) deriving from astrocyte cultures treated with 100 μM AIT-082 generated protection against damage induced by a toxic pulse with 100 μM NMDA in cultured neurons.
The effects of NMDA are shown in FIG. 66A on cortical cells and in FIG. 66B for hippocampal cells.

[4] = test system: Swiss Webster mice; assay: Locomotor activity (spontaneous movements), Swiss Webster mice; format: in vivo; settings: THA 1.25 mg/kg
Description: The activity of AIT-082 was compared with tacrine (THA) and physostigmine (PHY), experimental anticholinesterase agents which enhance memory in animals. The drugs were also evaluated for their effects on locomotor activity. In the win-shift memory paradigm, AIT-082 was evaluated for its ability to induce tolerance after 18 days of drug administration. In addition AIT-082 was tested for its activity to modify learning in a modified T-maze discrimination task.
(§1) The drugs used in this example are 4-((3-(1,6-dihydro-6-oxo-9-purin-9-yl)-1-oxopropyl)amino) benzoic acid (AIT-082), as an exemplary potassium salt, tacrine hydrochloride (tetrahydroaminoacridine, THA, Sigma Chemical Co., St. Louis, Mo.), and physostigmine, hemisulfate salt (PHY, Sigma Chemical Co., St. Louis, Mo.). The drugs were dissolved in saline and prepared fresh daily. All injections were made at a volume of 0.1 ml/10 grams body weight. When testing drug effects, intraperitoneal (i.p.) injections of AIT-082 or THA were made one hour prior to the start of testing. Due to its shorter duration of action, PHY was injected 30 minutes prior to testing. Control subjects receive a similar injection of saline (vehicle).

[5] = test system: Swiss Webster mice; assay: Win-shift T-maze memory test, Swiss Webster mice; format: in vivo; settings: 90-second inter-trial interval, THA 1.25 mg/kg i.p.
Description: Male Swiss Webster mice six months (young adult) and eleven months (old) of age, obtained from the National Institute on Aging, were maintained in individual cages, on a […] light/dark cycle with continuous access to water. Food was limited so that the mice stabilized at 80% of free feeding weight. Mice were weighed and handled daily for one week. The win-shift model was run as described in the literature and consists of a T-maze in which the correct response alternates after each correct trial. The interval between trials is varied and allows for the determination of the longest period between trials that a subject can remember the correct response on the previous trial. This allows the measure of the duration of the memory trace. […] The reward goal box is alternated after each correct trial. Ten trials per mouse are run each day. […] The latency time to leave the start box is recorded as a measure of motivation, the running time (the time from leaving the start box to reaching the goal box) is recorded as a measure of performance, and the number of correct responses as a measure of memory.
as §1
To determine the duration of the memory trace, subjects were administered drug or saline and 30 minutes (PHY) or 1 hour (AIT-082 or THA) later they were given a single reference run with the milk reward in both goal boxes. After the indicated inter-trial delay, subjects were returned to the start box and given the first test trial with the milk reward only in the goal box opposite to the one entered on the previous correct trial. The subjects were given 10 trials with the reward alternating only after correct responses.
To determine if tolerance to the biological effects of AIT-082 developed, drug or saline was administered daily for 18 days prior to the testing in the standard win-shift paradigm.

## CN[C@H](CC(=O)O)C(=O)O [NMDA, N-methyl-D-aspartate]
[1]
  neuronal death: about 80%
[2]
  reduction of GAD activity versus contralateral sham-operated nuclei: 50%
[3]
  death of the cultured neurons: ~75%
[3]; within 24 hours
  Count of Dead Cells (Trypan Blue Staining): 401.4 ± 27.3
  LDH: 262.8 ± 13.4 mOD/min

## Nc1c2c(nc3ccccc13)CCCC2 [THA, tacrine hydrochloride, reference compound]
[4]
  Locomotor Activity: 671* Spontaneous movements per hour
[5]
  Win-shift Memory Test, Correct responses: 7.1* Correct responses/10 trials
